Consider one compound from ChEMBL document CHEMBL4673280, “Discovery and SAR studies of 2-alkyl-3-phenyl-2,4,5,6,7,8-hexahydropyrazolo[3,4-d]azepines as 5-HT inhibitors leading to the identification of a clinical candidate” (Bioorg Med Chem Lett, 2021).

The subject of data set [1] is Rattus norvegicus. Description: In vivo antagonist activity at 5-HT7 receptor in rat assessed as maximal inhibition of 5-CT induced hypothermia at 0.3 mg/kg, po compound administered 20 mins prior to 5-CT injection. Type of data set: functional, organism-based.
Data set [2] can be described thus: In vivo antagonist activity at 5-HT7 receptor in po dosed rat assessed as inhibition of 5-CT induced hypothermia compound administered 20 mins prior to 5-CT injection and measured after 1 hr. Type of data set: functional. Conditions: 1.333 h, time 80 min.
Data set [3] can be described thus: Cmax in non-human primates at 5 mg/kg, po. Type of data set: ADME, organism-based. More on the design: route oral, dose 5 mg/kg. Conditions: in vivo.
Data set [4] can be described thus: Tmax in non-human primates at 5 mg/kg, po. The data set is classed as ADME, organism-based. Conditions: in vivo.
Data set [5] in a line: Tmax in dog at 10 mg/kg, po. Type of data set: ADME, organism-based, Canis lupus familiaris. Conditions: in vivo.
A short description of data set [6]: Oral bioavailability in mouse. The data set is classed as ADME, organism-based. To be noted: in vivo.
A short description of data set [7]: Cmax in dog at 10 mg/kg, po. Type of data set: ADME, organism-based, Canis lupus familiaris. More on the design: route oral, dose 10 mg/kg. To be noted: in vivo.
Data set [8] is described as follows: Cmax in rat brain at 10 mg/kg, po. The data set is classed as ADME, organism-based. Further details: route oral, dose 10 mg/kg.
The nature of data set [9]: AUC in rat brain at 10 mg/kg, po. Type of data set: ADME, organism-based. More on the design: dose 10 mg/kg.
Data set [10] can be described thus: Tmax in rat brain at 10 mg/kg, po. Type of data set: ADME, organism-based.
Data set [11] in a line: Cmax in rat plasma at 10 mg/kg, po. Type of data set: ADME, organism-based. More on the design: route oral, dose 10 mg/kg.
Data set [12] in a line: Half life in rat at 3 mg/kg, sc. Type of data set: ADME, organism-based. Conditions: in vivo.
Data set [13] in a line: Half life in rat at 1 mg/kg, iv. The data set is classed as ADME, organism-based. To be noted: in vivo.
For data set [14], the system named is Cytochrome P450. The data set can be described thus: Inhibition of CYP450 (unknown origin) up to 10 uM. To be noted: human. The data set is classed as ADME, protein assay.
Data set [15] in a line: Protein binding in rat plasma assessed as unbound fraction. The data set is classed as ADME, cell-free.
Data set [16] deals with 5-hydroxytryptamine receptor 2A (Homo sapiens, UniProt P28223). The data set can be described thus: Antagonist activity at 5-HT2A receptor (unknown origin) by calcium mobilization assay. The data set is classed as functional. To be noted: filed as antagonist. On the technique in general: A change in cytosolic calcium serves as a functional read-out for many receptors and channels.

Data set [17] concerns the target T1, 5-hydroxytryptamine receptor 2C (Homo sapiens, UniProt P28335).
T1 sequence (P28335 whole entry): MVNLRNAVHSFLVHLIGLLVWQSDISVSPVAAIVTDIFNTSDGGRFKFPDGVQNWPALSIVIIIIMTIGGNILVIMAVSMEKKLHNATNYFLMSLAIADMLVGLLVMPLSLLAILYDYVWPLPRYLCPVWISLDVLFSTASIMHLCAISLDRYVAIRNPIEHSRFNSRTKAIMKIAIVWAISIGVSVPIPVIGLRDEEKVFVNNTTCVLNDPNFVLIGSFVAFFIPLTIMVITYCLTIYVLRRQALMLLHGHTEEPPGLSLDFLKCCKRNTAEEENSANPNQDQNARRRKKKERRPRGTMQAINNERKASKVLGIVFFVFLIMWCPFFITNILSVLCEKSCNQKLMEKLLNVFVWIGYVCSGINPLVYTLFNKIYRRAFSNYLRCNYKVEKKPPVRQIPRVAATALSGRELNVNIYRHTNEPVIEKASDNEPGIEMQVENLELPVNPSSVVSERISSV
Description: Displacement of [3H]-ketanserin from human 5-HT2C receptor by competitive radioligand binding assay. (In general: In a radioligand displacement assay an active substance lowers the binding of a labelled ligand.)

Data set [18] can be described thus: Efflux ratio of apparent permeability in human Caco2 cells. Type of data set: ADME, cell-based. To be noted: Caco-2. (Caco-2 cells form a polarised layer with tight junctions and transporters.)
Data set [19] in a line: Ratio of plasma concentration that yields to require for inhibition of alpha1 adrenergic receptor-mediated mydriasis in phenylephrine-stimulated rat to MED for inhibition of 5-HT7 receptor mediated hypothermia in po dosed 5-CT-stimulated rat. The data set is classed as organism-based.

Several values for one entry are separate records, joined by “and”; a condition that tells them apart may be missing. Equal values may be shown once. Activity calls are given as the source filed them. The calls are words filed in the database; no cut-off is given here.

5-hydroxytryptamine receptor 2A, sequence (P28223 whole entry): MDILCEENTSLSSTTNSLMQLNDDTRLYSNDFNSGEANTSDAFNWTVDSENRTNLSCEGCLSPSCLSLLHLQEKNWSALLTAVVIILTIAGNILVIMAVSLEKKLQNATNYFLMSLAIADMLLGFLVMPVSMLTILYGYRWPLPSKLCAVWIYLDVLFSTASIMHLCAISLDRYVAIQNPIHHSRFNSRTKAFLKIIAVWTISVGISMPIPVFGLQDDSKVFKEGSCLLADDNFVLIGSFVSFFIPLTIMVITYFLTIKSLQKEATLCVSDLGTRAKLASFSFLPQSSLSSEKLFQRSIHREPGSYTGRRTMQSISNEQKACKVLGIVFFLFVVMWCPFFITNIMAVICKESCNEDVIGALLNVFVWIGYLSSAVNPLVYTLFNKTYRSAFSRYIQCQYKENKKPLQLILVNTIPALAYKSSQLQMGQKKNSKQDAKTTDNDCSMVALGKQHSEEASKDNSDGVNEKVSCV

A word on the ED50: it is the dose that gives a 50% effect, or the effect in half of the subjects. For orientation: Cmax means the highest concentration seen after dosing. What is called Tmax is the time at which the peak concentration occurs. The term bioavailability denotes dose-corrected exposure relative to a reference, in per cent. Read a high bioavailability as good availability. One may read the AUC as the area under the concentration-time curve, a measure of exposure. A lower AUC goes with low exposure. The half-life is the time in which the quantity being followed falls by half. Usually fraction unbound stands for free concentration divided by total concentration. The term pKb denotes −log10 of the Kb, conventionally taken in molar units. What is called Ki is a measure of affinity in units of concentration, obtained from inhibition or displacement. What is called efflux ratio is a quotient of directional permeabilities that is used to spot active efflux. Regarding `CC(C)n1nc2c(c1-c1ccc(F)cc1)CCNCC2`, the inhibition entry in data set [1] was “Active”. The ED50 in data set [2] amounted to 0.05 mg/kg. Further, the Cmax in data set [3] is 0.3 µg/mL; in [7], 2 µg/mL; in data set [8] it was 1680 ng/mL and 6.1 µM; in data set [11] it was 1080 ng/mL and 3.9 µM. Besides, the Tmax in data set [4] is 3 h; in [5], 0.5 h; in data set [10], 1 h. In addition, the bioavailability in [6] amounted to 98%. In data set [9], this compound gave an area under the curve (AUC) of 89 µM·h. Also, the figures for the half-life in [12] and in [13] were 3.9 h and 3.4 h, respectively. The “inhibition (INH)” value in data set [14] is reported as “Not Active”. In addition, in [15], the fraction unbound came to 0.2. Besides, the pKb in data set [16] worked out at 8.1. The Ki in [17] came out at 0.049 µM. In addition, in [18], the efflux ratio worked out at 1.3. Further, the selectivity ratio in data set [19] turned out to be 30.
